The record followed here is US20260184697A1, “EZH1/2 INHIBITOR, PREPARATION THEREOF, AND USE THEREOF IN ANTI-TUMOR THERAPY” (JIANGSU TASLY DIYI PHARMACEUTICAL CO., LTD., priority 2022, published 2026).

Each structure is given as a SMILES string. pIC50: −log10 of the molar value. Like-named read-outs stand apart in the source and are kept apart here.

One assay concerns the target T1, EZH1/SUZ/EED (Homo sapiens, UniProt O75530+Q15022+Q92800).
T1 construct: purchased BPS 51006
The experiment in a line: Inhibitory effect on EZH1 by the MTase-Glo method (Test Example 1). In kind it is biochemical. Conditions: EZH1/SUZ/EED 25 nM, H3 peptide 10 μM, SAM 3 μM, 30° C. 3 h, read-out: Test Example 1 WT EZH1 IC50. The method in brief:
(§1)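 EZH2/SUZ/EED (6.25 nM) or EZH1/SUZ/EED (25 nM) pre-incubated 15 min with compound in pH 7.6 Bicine buffer, 0.5% DMSO. Biotinylated H3(21-44) peptide 10 μM plus SAM 3 μM reacted 3 h at 30 °C; MTase-Glo luminescence normalized to controls, IC50 from variable-slope fit.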

The test system of assay [1] is H3K27Me3 methylation in Karpas-422 cells. The experiment in a line: H3K27Me3 cell method, inhibition of H3K27Me3 methylation (Test Example 2). In kind it is cell-based, human. Conditions: Homo sapiens, KARPAS-422, 72 h; for pIC50: Karpas-422 cells, 3 days incubation, HTRF signal, read-out: Test Example 2 H3K27Me3 inhibition (Karpas-422) IC50; for IC50: read-out: Test Example 2 H3K27Me3 inhibition (Karpas-422) IC50(nM). The method in brief: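 Karpas-422 cells, 15,000/well in 80% RPMI 1640 + 20% FBS, treated with compound dilutions (final DMSO 0.2%) for 3 days at 37 °C, 5% CO2. Cellular H3K27Me3 read by HTRF; viability in parallel by CCK8 at OD405. IC50 from log(inhibitor)-response variable-slope fit of inhibition rate.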

For a further assay, the system named is Karpas-422 cells. The experiment in a line: Anti-proliferation by Cell Titer-Glo method (Test Example 3). The format is cell-based. Conditions: Homo sapiens; for pIC50: Karpas-422 cells, Cell-Titer Glo on the eleventh day, read-out: Test Example 3 Karpas-422 cell anti-proliferation IC50; for IC50: KARPAS-422, read-out: Test Example 3 Karpas-422 cell anti-proliferation IC50(nM). As for the experimental part: Karpas-422 (Nanjing Kebai, CBP60629) cells were seeded in a 96-well plate (Corning, 3894) at 1,000 cells per well in growth medium (80% 1640 (Hyclone, SH30809.01)+20% FBS (Corning, 35-081-CV)), in a total of 100 μL, and then was added with 25 μL of 5-fold different concentrations of compounds diluted in growth medium. The cell growth group without compound addition was used as a positive control (maximum signal control), and the medium was used as a negative control (minimum signal control), while ensuring that the final contration of DMSO in each reaction well was 0.2%. Then the 96-well cell plate was placed in a cell culture incubator (37° C., 5% CO2) and incubated for 3 days. On the fourth day, the cell culture plate was taken out of the incubator, using a row gun to gently blow the cells up and down to mix, removing 62.5 μL of the cell suspension, adding 50 μL of growth medium and 12.5 μL of compounds of 5 times different concentrations, and then putting them in the cell incubator to incubate for 4 days. On the eighth day, the same method was used as the fourth day to treat the cells, then incubating in the cell culture incubator for 3 days. On the eleventh day, the Cell-Titer Glo (Promega, G7573) was used to detect cell viability, and a microplate reader was used to detect the signal value of luminescence.
The inhibition rate of different concentrations of compounds on cells was calculated as inhibition rate=[1−(compound signal value−negative control signal value)/(positive control signal value-negative control signal value)][…]. The IC50 of the compound on cell activity inhibition was calculated by GraphPad Prism 6 with log(inhibitor) vs. response-Variable slope model fitting. The fitting equation is: Y=Bottom+(Top−Bottom)/(1+10^((Log IC50−X)*Hill Slope)), wherein Y represents the inhibition rate, and X represents the known concentration of the compound after Log.
(ATP-based viability assays read luminescence as a measure of living cells.)

For a further assay, the target named is T2, EZH2/SUZ/EED (Homo sapiens, UniProt O75530+Q15022+Q15910).
T2 construct: purchased BPS 51003
T2 sequence (Q15910 2-746 limits assumed): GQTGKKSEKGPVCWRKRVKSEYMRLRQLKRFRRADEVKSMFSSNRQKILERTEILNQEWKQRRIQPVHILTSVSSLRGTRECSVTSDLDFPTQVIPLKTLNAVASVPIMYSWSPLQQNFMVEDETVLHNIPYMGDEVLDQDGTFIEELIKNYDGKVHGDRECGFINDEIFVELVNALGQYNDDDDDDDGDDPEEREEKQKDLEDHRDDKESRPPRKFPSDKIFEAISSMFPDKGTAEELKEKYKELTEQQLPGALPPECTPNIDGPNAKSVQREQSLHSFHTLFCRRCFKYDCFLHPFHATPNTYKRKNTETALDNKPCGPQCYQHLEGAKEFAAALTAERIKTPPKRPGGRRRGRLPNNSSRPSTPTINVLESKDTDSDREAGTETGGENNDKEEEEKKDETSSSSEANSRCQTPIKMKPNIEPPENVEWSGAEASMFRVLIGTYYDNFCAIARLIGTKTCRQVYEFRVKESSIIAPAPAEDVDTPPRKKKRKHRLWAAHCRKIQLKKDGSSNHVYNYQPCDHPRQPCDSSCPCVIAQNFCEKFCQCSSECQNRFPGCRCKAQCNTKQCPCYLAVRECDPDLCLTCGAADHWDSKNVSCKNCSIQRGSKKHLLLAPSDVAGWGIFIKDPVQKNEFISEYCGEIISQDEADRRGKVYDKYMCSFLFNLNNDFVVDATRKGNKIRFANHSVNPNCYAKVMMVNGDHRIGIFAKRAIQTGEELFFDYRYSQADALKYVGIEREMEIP
T2 sequence (Q15022 2-739 partner limits assumed): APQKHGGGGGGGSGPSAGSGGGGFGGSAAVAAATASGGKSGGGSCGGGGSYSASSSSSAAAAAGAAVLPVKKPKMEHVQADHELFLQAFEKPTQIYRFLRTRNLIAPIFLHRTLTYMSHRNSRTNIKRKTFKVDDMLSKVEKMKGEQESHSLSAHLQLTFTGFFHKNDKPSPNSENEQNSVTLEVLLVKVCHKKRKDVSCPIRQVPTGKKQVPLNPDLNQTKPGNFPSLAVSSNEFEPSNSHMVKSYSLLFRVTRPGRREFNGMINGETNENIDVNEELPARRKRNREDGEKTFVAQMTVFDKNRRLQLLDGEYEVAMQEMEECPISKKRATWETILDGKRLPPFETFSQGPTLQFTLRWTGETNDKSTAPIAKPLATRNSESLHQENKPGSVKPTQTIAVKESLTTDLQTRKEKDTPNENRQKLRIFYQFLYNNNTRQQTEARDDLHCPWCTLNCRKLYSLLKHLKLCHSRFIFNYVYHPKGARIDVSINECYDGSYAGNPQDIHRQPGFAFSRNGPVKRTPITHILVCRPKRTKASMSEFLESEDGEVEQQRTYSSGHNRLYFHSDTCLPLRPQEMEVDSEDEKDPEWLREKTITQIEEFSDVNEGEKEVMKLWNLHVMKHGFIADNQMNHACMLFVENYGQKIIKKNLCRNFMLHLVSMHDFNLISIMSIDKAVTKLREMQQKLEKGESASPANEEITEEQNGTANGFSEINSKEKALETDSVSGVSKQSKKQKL
T2 sequence (O75530 2-441 partner limits assumed): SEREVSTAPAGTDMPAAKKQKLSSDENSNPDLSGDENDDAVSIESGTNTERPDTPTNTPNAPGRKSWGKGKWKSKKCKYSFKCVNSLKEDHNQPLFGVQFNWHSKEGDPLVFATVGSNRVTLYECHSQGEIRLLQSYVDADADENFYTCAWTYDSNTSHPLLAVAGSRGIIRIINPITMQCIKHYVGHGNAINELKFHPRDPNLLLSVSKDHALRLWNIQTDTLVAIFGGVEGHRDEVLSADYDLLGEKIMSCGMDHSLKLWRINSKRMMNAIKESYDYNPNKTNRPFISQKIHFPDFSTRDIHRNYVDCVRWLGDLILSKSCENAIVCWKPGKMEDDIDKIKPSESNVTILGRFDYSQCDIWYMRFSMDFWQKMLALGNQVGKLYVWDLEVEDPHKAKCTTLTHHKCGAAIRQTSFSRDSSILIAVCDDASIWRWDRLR
The assay is described as follows: Inhibitory effect on EZH2 by the MTase-Glo method (Test Example 1). The format is biochemical. Conditions: EZH2/SUZ/EED 6.25 nM, H3 peptide 10 μM, SAM 3 μM, 30° C. 3 h, read-out: Test Example 1 WT EZH2 IC50. The method in brief:
as §1

T1 sequence (Q92800 2-747 limits assumed): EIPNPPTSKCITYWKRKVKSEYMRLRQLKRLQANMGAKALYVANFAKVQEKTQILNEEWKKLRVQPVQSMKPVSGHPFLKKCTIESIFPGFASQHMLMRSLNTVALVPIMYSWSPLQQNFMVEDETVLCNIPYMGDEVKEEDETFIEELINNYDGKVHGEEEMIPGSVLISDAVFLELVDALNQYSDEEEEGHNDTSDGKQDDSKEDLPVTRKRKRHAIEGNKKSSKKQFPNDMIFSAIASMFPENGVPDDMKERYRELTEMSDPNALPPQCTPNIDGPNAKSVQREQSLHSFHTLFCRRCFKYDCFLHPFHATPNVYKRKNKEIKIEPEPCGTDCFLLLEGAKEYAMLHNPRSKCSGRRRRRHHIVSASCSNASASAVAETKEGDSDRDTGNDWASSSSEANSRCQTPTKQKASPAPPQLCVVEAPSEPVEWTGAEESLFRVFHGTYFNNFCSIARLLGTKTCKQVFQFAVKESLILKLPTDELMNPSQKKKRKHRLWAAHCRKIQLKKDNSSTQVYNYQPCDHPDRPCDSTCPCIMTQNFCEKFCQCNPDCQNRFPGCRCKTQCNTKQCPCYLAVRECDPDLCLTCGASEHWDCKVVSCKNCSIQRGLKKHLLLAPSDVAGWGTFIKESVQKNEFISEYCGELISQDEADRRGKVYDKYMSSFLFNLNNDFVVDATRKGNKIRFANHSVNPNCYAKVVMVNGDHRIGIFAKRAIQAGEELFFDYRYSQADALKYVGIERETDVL
T1 sequence (Q15022 2-739 partner limits assumed): as the sequence (Q15022 2-739 partner limits assumed) above
T1 sequence (O75530 2-441 partner limits assumed): as the sequence (O75530 2-441 partner limits assumed) above

For `COC1CN([C@H]2CC[C@@H]([C@H]3COc4c(Cl)cc(C(=O)NCc5c(SC)cc(C)[nH]c5=O)c(C)c4O3)CC2)C1` [Compound 8], the pIC50 at EZH1/SUZ/EED is 8.21; in assay [1], 8.62; in the assay with Karpas-422 cells, 8.74; at EZH2/SUZ/EED it was 8.25.

In the case of `CSc1cc(C)[nH]c(=O)c1CNC(=O)c1cc(Cl)c2c(c1C)O[C@@H]([C@H]1CC[C@@H](N3CC4COCC4C3)CC1)CO2` (stereo partly shown) [Compound 14], the pIC50 is 8.43 at EZH1/SUZ/EED, 8.17 in assay [1], 8.48 in the assay with Karpas-422 cells and 8.43 on EZH2/SUZ/EED.

In the case of `CSc1cc(C)[nH]c(=O)c1CNC(=O)c1cc(Cl)c2c(c1C)O[C@@H]([C@H]1CC[C@@H](N(C)C)CC1)CO2` [Compound 6], the pIC50 at EZH1/SUZ/EED is 8.40; on EZH2/SUZ/EED, 8.60. The IC50 in assay [1] worked out at 0.59 nM; with Karpas-422 cells, 1.3 nM.

Regarding `Cc1cc(C)c(CNC(=O)c2cc(Cl)c3c(c2Cl)O[C@@H]([C@H]2CC[C@@H](N(C)C)CC2)CO3)c(=O)[nH]1` [Compound 143], the pIC50 at EZH1/SUZ/EED is 7.40; on EZH2/SUZ/EED it was 8.26. Further, the figures for the IC50 (in assay [1]; with Karpas-422 cells) were 22 nM and 10.7 nM, respectively.

`COc1cc(C)[nH]c(=O)c1CNC(=O)c1cc(Cl)c2c(c1C)OC(C1CCC(N(C)C)CC1)CO2` (stereo not shown) [Compound 5]: the pIC50 at EZH1/SUZ/EED is 7.59; in assay [1], 8.10; with Karpas-422 cells, 7.63; on EZH2/SUZ/EED, 8.64.

For the molecule `CSc1cc(C)[nH]c(=O)c1CNC(=O)c1cc(C#N)c2c(c1C)O[C@@H]([C@H]1CC[C@@H](N3CC(OC4CC4)C3)CC1)CO2` [Compound 159], the pIC50 at EZH1/SUZ/EED is 8.15; in assay [1] it was 8.85; in the assay on Karpas-422 cells, 8.64; at EZH2/SUZ/EED, 8.96.

Consider `COc1cc(C)[nH]c(=O)c1CNC(=O)c1cc(Cl)c2c(c1C)O[C@@H]([C@H]1CC[C@@H](N3CC(OC)C3)CC1)CO2` [Compound 97], for which the pIC50 is 7.82 on EZH1/SUZ/EED, 8.09 in assay [1], 8.28 in the assay on Karpas-422 cells and 8.49 at EZH2/SUZ/EED.
